Experimental data: patent US10494341B2, “Compound containing indoleacetic acid core structure and use thereof” (Beijing An Jian Xi Bio-Medical Technology Co., Ltd., priority 2015, dated 2019)
Blank lines part the entries; values can stand above or below the compound they belong to.

Assays:
HT-29 cells = assay: HT-29 transplanted tumors in nude mice, compound a in combination with doxorubicin; type: in vivo; settings: Doxorubicin 2 mg/kg/week i.p. or compound a 3 mg/kg/day gavage, 4 weeks
Protocol: Compound a was administered by gavage once a day for 4 weeks continuously; Doxorubicin was injected intraperitoneally once a week for 4 weeks. Body weight and tumor volume of animals were measured and calculated according to Example 9.

[1] = test system: colon cancer cells (SW480); settings: SW480 tumors in nude mice; for effect on tumor / on sensitivity of tumor to doxorubicin: doxorubicin 2.5 mg/kg i.p. every 2 days for 5 weeks, agents daily; for death of animals during treatment: doxorubicin 2.5 mg/kg i.p., 6 mice per group
Protocol: The experiment was carried out using compound a in this example. Under sterile conditions, a suspension of colon cancer cells (SW480) in logarithmic growth phase (cell concentration was adjusted to 1×10^7/mL with physiological saline) was inoculated subcutaneously to 5 to 6 weeks old balb/c female nude mice on the right rear back, and each nude mice was inoculated at an amount of 0.3 ml, i.e. the number of cells contained was 3×10^6 per each mouse. 10 days later, subcutaneous transplanted tumor of 100-250 mm^3 appeared. The nude mice with tumor were randomly divided into several groups, each containing 6 mice: (1) control group; (2) doxorubicin group; (3) doxorubicin+amifostine; (4) doxorubicin+Celecoxib+intermediate II; (5) doxorubicin+intermediate I+intermediate II; (6) doxorubicin+low-dose compound a (6 mg/kg/day); (7) doxorubicin+high-dose compound a (15 mg/kg/day). Firstly, the following compounds were administered to each group of nude mice with tumor according to the following doses: intermediate I and intermediate II (3 mg/kg/day respectively), amifostine (400 mg/kg/day), Celecoxib (6 mg/kg/day). Except that amifostine was subcutaneously injected (30 minutes before irradiation), the other protective agents were administered by gavage. The above drugs were administered every day for 5 weeks continuously. 12 hours after the administration, doxorubicin (2.5 mg/kg) was injected intraperitoneally, and it was administered once every 2 days for 5 weeks. During the dosing period, the body weight of the nude mice was measured every two days with a precision electronic balance. The growth of the tumor and whether or not red and swelling and rupture occur were observed every day after inoculation. After tumor formation, the surface morphology and activity of the transplanted tumor were examined, and the longest diameter (a) and the shortest diameter (b) of the tumor nodules were measured every 3 days with a vernier caliper. […] 21 days after administration of doxorubicin, the tail vein blood of mice was collected to perform leukocyte count and blood biochemical index analysis. The tumor tissue and normal peripheral tissues were taken on the last day of treatment, and the content of the intermediate I therein was measured by HPLC (FIG. 9a). At the same time, paraffin sections were made, the occurrence of apoptosis was detected by terminal labeling (FIG. 9b), and the relative survival percentages of normal tissue and tumor tissue were calculated (the results are summarized in FIG. 9b).

mice (C57BL/6J) = assay: Survival rate of mice irradiated by γ-rays; type: in vivo; settings: 30th day after 8.75 Gy γ-rays, 16 mice per group; for number of survived mice: intermediates each 3 mg/kg/day gavage; for survival rate: compounds 6 mg/kg/day gavage, amifostine 400 mg/kg/day i.p.
Protocol: In this experiment, 10-week-old male mice (C57BL/6J) weighing about 20 g were used as subjects, and 16 mice were taken as a group. The mice were divided into the following groups: 1. no γ-ray+no drug; 2. γ-ray+no drug; 3. γ-ray+amifostine; 4. γ-ray+intermediate I+intermediate II; 5. γ-ray+compound a; 6. γ-ray+compound b; and 7. γ-ray+compound d. Firstly, each group of mice was administered with a protective agent, and the specific amounts were as follows: compound a, b and d: 6 mg/kg/day (8.1 μM), amifostine: 400 mg/kg/day (1.5 mM), intermediate I+Intermediate II: each 3 mg/kg/day (8.1 μM). Except that amifostine was intraperitoneally injected (30 minutes before irradiation, amifostine was administered), the other protective agents were administered by gavage. 12 hours after administration, systemic irradiation was performed using cobalt 60γ-rays at a dose of 8.75Gy and a dose rate of 0.35 Gy/min for 25 minutes, with the radiation source 80 cm away from the mice. The mice were irradiated once, and continuously administered with drugs once daily for 10 days after irradiation. The number of survival mice was recorded. The percentage obtained by dividing the number of survival mice by the total number of mice in the experimental group (16 mice) is survival rate of mice, and the results are summarized in FIG. 7. […] It is noteworthy that in the experimental group using intermediate I+intermediate II, only one mouse is survived.

peripheral leukocytes = assay: Protection against blood cell (leukocyte) damage induced by paclitaxel; type: in vivo; settings: mice, paclitaxel; amifostine 400 mg/kg/day i.p.
Protocol: In this experiment, 10-week-old male mice (C57BL/6J) weighing about 20 grams were used as subjects, and 6 mice were taken as a group. The mice were divided into 5 groups: 1. Paclitaxel; 2. Paclitaxel+amifostine; 3. Paclitaxel+intermediate I+intermediate II; 4. paclitaxel+compound a; and 5. paclitaxel+compound b. Firstly, each group of mice was administered with a protective agent, and the specific amounts were as follows: compounds a and b: each 6 mg/kg/day (8.1 μM), amifostine: 400 mg/kg/day (1.5 mM), intermediate I+Intermediate II: each 3 mg/kg/day (8.1 μM). Except that amifostine was intraperitoneally injected (30 minutes before administering Paclitaxel, amifostine was administered), the other protective agents were administered by gavage (once a day, 25 times continuously). 12 hours after the compound a and the corresponding protective agents were administered, Paclitaxel was intraperitoneally injected (10 mg/kg/day, once every 3 days, 9 times continuously), and 7, 14, 21, 28 days later, blood of mice was drawn respectively. The number of leukocytes was analyzed.

A549 cells = assay: A549 transplanted tumors in nude mice, compound used alone; type: in vivo; settings: A549; cisplatin 5 mg/kg/week i.p.; compound a 5 and 25 mg/kg/day; intermediates 12.5 mg/kg/day each
Protocol: Except cisplatin (intraperitoneal injection, once a week), all compounds were administered by gavage, once a day for 5 weeks continuously.

COX-1 in gastric mucosa = biological target: T1, COX-1 in gastric mucosa (Rattus norvegicus, UniProt Q63921); assay: COX-1 activity assay, gastric mucosa (thromboxane B2 EIA) after oral dosing of A23187-treated rats; type: in vivo; settings: for reduction of inhibition against COX-1 in gastric mucosal tissue compared with intermediate I: gavage 1, 3, 9 mg/kg/day, intermediate I 0.5 mg/kg, 6 h after dosing; for effect of inhibiting COX-1 in gastric mucosa: gavage, A23187-activated
T1 construct: from tissue; host or cells: rat gastric mucosa (in vivo dosing, tissue homogenate supernatant)
T1 sequence (Q63921 27-602): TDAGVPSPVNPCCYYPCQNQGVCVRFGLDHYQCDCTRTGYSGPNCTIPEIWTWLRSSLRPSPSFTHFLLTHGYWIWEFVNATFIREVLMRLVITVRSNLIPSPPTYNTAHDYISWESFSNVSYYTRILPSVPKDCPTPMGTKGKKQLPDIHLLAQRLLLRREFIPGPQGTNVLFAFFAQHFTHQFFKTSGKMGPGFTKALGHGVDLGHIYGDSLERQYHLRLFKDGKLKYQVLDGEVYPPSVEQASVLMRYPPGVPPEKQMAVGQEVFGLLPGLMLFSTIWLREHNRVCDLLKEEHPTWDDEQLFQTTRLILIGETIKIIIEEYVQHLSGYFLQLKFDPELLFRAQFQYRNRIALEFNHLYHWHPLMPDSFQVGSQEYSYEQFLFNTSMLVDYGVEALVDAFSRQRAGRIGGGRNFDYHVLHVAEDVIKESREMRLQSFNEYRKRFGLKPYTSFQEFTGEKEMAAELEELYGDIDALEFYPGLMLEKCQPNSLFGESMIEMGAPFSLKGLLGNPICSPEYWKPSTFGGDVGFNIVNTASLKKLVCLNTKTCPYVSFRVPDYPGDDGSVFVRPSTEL
Protocol: (1) COX-1 activity assay: 2 hours after intraperitoneal injection of calcium ionophore A23187 (50 mg/kg) to rats, each of the compounds a, b, c, d, e and f was orally administered (gavage) to three rats at a dose of 1, 3 and 9 mg/kg/day, respectively; the intermediate I was orally administered as a control drug to three rats at a dose of 0.5 mg/kg; and additional three rats were only administered with COX-1 activator, the calcium ionophore A23187, and were not administered with the compounds of the present invention. 6 hours after the compound of the present invention was administered, the animals were sacrificed, gastric mucosal tissue and myocardial tissue were collected, homogenized, and subjected to high-speed centrifugation (12,000 rpm), and the supernatant was collected for use. The amount of thromboxane B2 was measured using an enzyme-linked immunosorbent assay (EIA) kit (operated in accordance with the instructions provided by the manufacturer) and converted to COX1 activity.
(§1) The percentage inhibition rate against COX-1 (FIG. 1a—gastric mucosa, FIG. 1b—myocardium) and COX-2 (FIG. 1c) and the IC50 values (Table 1a—gastric mucosa; Table 1b—myocardium) of each tested pharmaceutical compound were calculated from the above data.

COX-2 = biological target: T2, COX-2 (Rattus norvegicus, UniProt P35355); assay: COX-2 activity assay (PGE2 in gastric mucosa, EIA) in LPS-treated rats; type: in vivo; settings: gavage, LPS 2.5 mg/kg-activated
T2 construct: from tissue; host or cells: rat gastric mucosa (LPS-treated rats, in vivo dosing)
T2 sequence (P35355 18-604): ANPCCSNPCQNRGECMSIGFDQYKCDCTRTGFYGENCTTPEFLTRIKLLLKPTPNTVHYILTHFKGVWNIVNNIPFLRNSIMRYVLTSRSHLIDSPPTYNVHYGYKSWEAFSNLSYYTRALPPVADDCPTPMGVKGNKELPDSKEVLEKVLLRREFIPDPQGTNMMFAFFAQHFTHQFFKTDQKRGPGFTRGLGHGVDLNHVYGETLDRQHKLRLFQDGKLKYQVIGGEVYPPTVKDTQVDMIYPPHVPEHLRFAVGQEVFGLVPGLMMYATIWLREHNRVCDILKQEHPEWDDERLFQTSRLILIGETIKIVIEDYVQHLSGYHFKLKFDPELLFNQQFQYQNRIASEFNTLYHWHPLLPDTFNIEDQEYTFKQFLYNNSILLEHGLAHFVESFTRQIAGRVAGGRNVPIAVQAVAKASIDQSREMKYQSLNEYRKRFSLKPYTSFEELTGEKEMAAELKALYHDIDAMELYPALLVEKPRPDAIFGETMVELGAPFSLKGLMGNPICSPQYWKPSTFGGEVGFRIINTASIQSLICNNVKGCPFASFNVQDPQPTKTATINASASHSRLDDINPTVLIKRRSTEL
Protocol: (2) COX-2 activity assay: The assay was similar to that of COX-1, except that LPS was injected intraperitoneally to rats at a dose of 2.5 mg/kg to activate COX-2 in this experiment. After administration, the content of PGE2 in gastric mucosa was measured using an enzyme-linked immunosorbent assay (EIA) kit (operated according to the instructions provided by the manufacturer) and converted to COX2 activity.
as §1

SW480 cells = assay: Measurement of cellular uptake of compounds (HPLC of intermediate I); type: in vitro ADME; settings: 10 μM
gastric mucosa = assay: Ulcer induction in rats after gavage (lesions of the gastric mucosa); type: in vivo

Compound: COc1cccc2c1C(=O)c1c(O)c3c(c(O)c1C2=O)C[C@@](O)(C(=O)CO)C[C@@H]3O[C@H]1C[C@H](N)[C@H](O)[C@H](C)O1 [Doxorubicin]
inhibition of the tumor, administered alone (HT-29 cells): only slightly inhibited
effect on tumor / on sensitivity of tumor to doxorubicin [1]: mild inhibitory effect
death of animals during treatment [1]: three

Compound: NCCCNCCSP(=O)(O)O [amifostine, reference compound]
effect on tumor / on sensitivity of tumor to doxorubicin [1]: significantly interferes with the inhibitory effect of doxorubicin on the tumor
protection of normal tissue and cells from doxorubicin ([1]; with doxorubicin): effectively protects the normal tissue
number of survived mice (mice (C57BL/6J)): 10 mice
survival rate (mice (C57BL/6J)): 62.5%
protective effect on leukocytes at the early stage of simulated chemotherapy (peripheral leukocytes): slight better than that of the compounds a and b

Compound: N.N.[Cl][Pt][Cl] [cisplatin, reference compound]
inhibitory effect on the tumor (A549 cells): only mild inhibitory effect

reduction of inhibition against COX-1 in gastric mucosal tissue compared with intermediate I (COX-1 in gastric mucosa): ~700 fold
inhibition against COX-2 (COX-2): weaker than those of compounds a and b
Compound: COC1=C(OC)C(=O)C(CCCCCCCCCCOC(=O)CC2=C(C)C(=Cc3ccc([S+](C)[O-])cc3)c3cc(F)ccc32)=C(C)C1=O (stereo not shown) [compound c]
effect of inhibiting COX-1 in gastric mucosa (COX-1 in gastric mucosa): almost lose the effect of inhibiting COX-1 in gastric mucosa

Compound: COc1c(O)c(C)c(CCCCCCCCCCOC(=O)CC2=C(C)C(=Cc3ccc([S+](C)[O-])cc3)c3cc(F)ccc32)c(O)c1OC (stereo not shown) [compound d]
number of survived mice (mice (C57BL/6J)): 11 mice
survival rate (mice (C57BL/6J)): 68.75%
reduction of inhibition against COX-1 in gastric mucosal tissue compared with intermediate I (COX-1 in gastric mucosa): ~700 fold
effect of inhibiting COX-1 in gastric mucosa (COX-1 in gastric mucosa): almost lose the effect of inhibiting COX-1 in gastric mucosa
inhibition against COX-2 (COX-2): weaker than those of compounds a and b

reduction of inhibition against COX-1 in gastric mucosal tissue compared with intermediate I (COX-1 in gastric mucosa): ~700 fold
inhibition against COX-2 (COX-2): weaker than those of compounds a and b
Compound: COC1=C(OC)C(=O)C(COC(=O)Cc2c(C)n(C(=O)c3ccc(Cl)cc3)c3cc(OC)ccc23)=C(C)C1=O [compound f]
effect of inhibiting COX-1 in gastric mucosa (COX-1 in gastric mucosa): almost lose the effect of inhibiting COX-1 in gastric mucosa

Compound: COc1ccc2c(c1)c(CC(=O)O)c(C)n2C(=O)c1ccc(Cl)cc1 [intermediate I, reference compound]
effect on tumor / on sensitivity of tumor to doxorubicin [1]: can also enhance the sensitivity of the tumor to Doxorubicin
death of animals during treatment [1]: die of gastrointestinal bleeding
uptake by cells (SW480 cells): difficult to be efficiently taken up by the cells
prevalence of ulcer (gastric mucosa; gavage three times, 10 μM): 0/6
prevalence of ulcer (gastric mucosa; gavage three times, 30 μM): 2/6
prevalence of ulcer (gastric mucosa; gavage three times, 90 μM): 6/6
Ulcer index (gastric mucosa; gavage three times, Dose 90 μM/kg, 12 hours after last gavage): 72.8 ± 6.82
ulcer at high concentration (gastric mucosa; gavage, high concentration (90 μM)): very serious ulcer
